In patent US7732442B2 (Ono Pharmaceutical Co., Ltd., priority 2003, dated 2010):

Molecular target: T1, human CCR4 (Homo sapiens, UniProt P51679)
T1 construct: expressed in transfected cells; host or cells: CHO-dhfr(-)
T1 sequence (P51679 1-360): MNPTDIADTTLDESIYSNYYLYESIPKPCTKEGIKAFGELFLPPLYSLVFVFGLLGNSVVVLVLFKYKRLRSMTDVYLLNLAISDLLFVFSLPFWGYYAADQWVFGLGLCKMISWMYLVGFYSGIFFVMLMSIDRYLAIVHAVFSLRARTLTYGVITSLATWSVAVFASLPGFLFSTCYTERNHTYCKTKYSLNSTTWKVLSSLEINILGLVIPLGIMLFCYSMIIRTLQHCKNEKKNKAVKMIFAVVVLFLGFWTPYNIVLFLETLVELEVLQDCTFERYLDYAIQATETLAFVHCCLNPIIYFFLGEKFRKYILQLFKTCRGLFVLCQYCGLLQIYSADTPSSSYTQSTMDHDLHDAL
Experiment: Inhibition test on activity of MDC mediated by CCR4 (MDC-induced transient increase of Ca ions) in CCR4/CHO cells
Type: cell-based
Settings: in the presence of 0.3% BSA; human MDC 10 nM; CCR4/CHO cell; read-out: IC50 value (inhibition of Ca2+ transient increase by MDC)
Method: Human bone marrow cell cDNA was prepared using Marathon cDNA amplification kit (manufactured by Clontech). PCR primers hCCR4XbaI-F1 (SEQ ID NO:1) and hCCR4XbaI-R1 (SEQ ID NO:2) were designed based on the sequence of GenBankX85740.
Using the human bone marrow cell cDNA as the template and using Ex Taq (manufactured by Takara), a PCR reaction (2 minutes at 95° C.→[30 seconds at 95° C., 45 seconds at 60° C., 1 minute at 72° C.]×35 times) was carried out. The thus amplified PCR product was subjected to 1% agarose gel electrophoresis, purified using QIAquick Gel Extraction Kit (manufactured by QUIAGEN) and then digested with a restriction enzyme XbaI. […]
The thus established human CCR4 stably overexpressing CHO cell (CCR4/CHO cell) was suspended in Ham's F-12 medium and FBS (10%) and dispensed into a 96-well plate at 3.0×10^4 cells/well. […] Transient increase in the intracellular Ca^2+ concentration induced by the human MDC was measured using a Ca^2+ detector for 96-well (manufactured by Hamamatsu Photonics), and inhibition ratio (%) of the test compound was calculated by the following equation: Inhibition ratio=[(Ec−Ea)/Ec]×100 • Ec: measured value of Ca^2+ transient increase by MDC; and • Ea: measured value of Ca^2+ transient increase by MDC when a test compound was added […]

SMILES	IC50 [nM]
COc1ccc(COc2cc(Br)cnc2NS(=O)(=O)c2ccc(C)cc2)cc1OCCN(C)C [Example 2(2), N-[5-bromo-3-({3-[2-(dimethylamino)ethoxy]-4-methoxybenzyl}oxy)pyridin-2-yl]-4-methylbenzenesulfonamide]	230
Cc1cnc(NS(=O)(=O)c2ccccc2Cl)c(OCc2ccc(Cl)c(OCC3CCN(C)CC3)c2)n1 [Example 6(1)]	80
